According to paper PMC8686763, “Pre-Steady-State Kinetics of the SARS-CoV-2 Main Protease as a Powerful Tool for Antiviral Drug Discovery” (Frontiers in Pharmacology, 2021):

Experiments:
C145A M^pro [1] = target: T1, C145A M^pro (Severe acute respiratory syndrome coronavirus 2, UniProt P0DTD1, C3408A); format: binding, SARS-CoV-2
C145A M^pro [2] = target: T1, C145A M^pro; format: binding, SARS-CoV-2; remark: listed apart in the source

## COc1cccc2[nH]c(C(=O)N[C@@H](CC(C)C)C(=O)N[C@@H](C[C@@H]3CCNC3=O)C(=O)CO)cc12 [PF-00835231]
C145A M^pro [1]
  K 1 (= k 1/k −1): 0.30 ± 0.02 M⁻¹
  K 2 (= k 2/k −2): 0.35 ± 0.09
  formation of the initial complex (k 1) faster for C145A M^pro than WT: approximately 20 fold
  k 1: (6.6 ± 0.2)×10^6 M^−1×s^−1
  k 2: 1.0 ± 0.2 s⁻¹
  k -1: 22 ± 0.2 s⁻¹
  k -2: 2.8 ± 0.2 s⁻¹
C145A M^pro [2]
  change in Tm: ~2.2 °C
